Experimental findings from PubChem BioAssay (NCI) are described below.

Values joined by “and” are separate entries in the source; they are usually repeats but may differ in a detail not shown here. Equal values may be shown once.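 48-hour exposure; five concentrations; linearly interpolated endpoints. GI50 = concentration required for 50% inhibition of growth. TGI is the concentration that stops growth completely.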 Where only a bound is given, the exact number is not on record here.

Some test systems named below: TK-10 renal; BT-549 breast; M14 melanoma; CCRF-CEM leukemia; SF-268 CNS; OVCAR-4 ovarian; EKVX NSCLC; CAKI-1 renal.
Holding throughout (test): NCI-60 cell line screen, 48 h

In the case of `O=C(/C(=C/c1ccc([N+](=O)[O-])cc1)SCc1ccc(F)cc1)c1ccc(Cl)cc1`, the GI50 was 20.1 µM in the assay with TK-10 renal; 3.38 µM with BT-549 breast; 3.91 µM with M14 melanoma; 3.17 µM in the assay with CCRF-CEM leukemia; 9.44 µM in the assay on SF-268 CNS; 3.12 µM in the assay on OVCAR-4 ovarian. The GI50 in the assay with EKVX NSCLC was 11.5 µM. The TGI in the assay on TK-10 renal is 54.8 µM; with BT-549 breast, 16.4 µM; with M14 melanoma, 20.2 µM; in the assay with CCRF-CEM leukemia, over 100 µM; in the assay with SF-268 CNS, 33.5 µM; in the assay on OVCAR-4 ovarian, 13 µM. This compound also yielded a TGI in the assay on EKVX NSCLC of 38.6 µM.

Regarding `CCOC(=O)C(C)(C)C(O)C(C)C` (stereo not given), the TGI in the assay with TK-10 renal, in the assay with BT-549 breast, in the assay with M14 melanoma, in the assay with CAKI-1 renal, with CCRF-CEM leukemia and in the assay with SF-268 CNS was over 100 µM throughout. For the same compound, the TGI with OVCAR-4 ovarian and in the assay on EKVX NSCLC was over 100 µM each time.

For `CC/C(=C(/c1ccc(O)cc1)c1ccc(OCCN2CCCCC2)cc1)c1ccc(OC)cc1`, the GI50 was 14.7 µM with TK-10 renal; 1.6 µM with BT-549 breast; 1.73 µM in the assay with M14 melanoma; 0.513 µM in the assay on CCRF-CEM leukemia; 2.14 µM in the assay with SF-268 CNS; 1.88 µM in the assay with OVCAR-4 ovarian. In addition, in the assay with EKVX NSCLC, the GI50 is 4.05 µM. For the same compound, the TGI with TK-10 renal stood at 29.2 µM; with BT-549 breast, 3.19 µM; in the assay on M14 melanoma, 3.38 µM; in the assay with CCRF-CEM leukemia it was 5.09 µM; in the assay with SF-268 CNS, 6.38 µM; with OVCAR-4 ovarian, 5.99 µM. In addition, the TGI in the assay on EKVX NSCLC is 18.4 µM.

`C[C@H]1[C@H]2[C@H]3CC[C@@H]4[C@@]5(C)C/C(=C/c6cccnc6)C(=O)C(C)(C)[C@@H]5CC[C@@]4(C)[C@]3(C)CC[C@]23CO[C@]1(C)[C@@H](C(=O)/C=C\c1cccnc1)C3`: the GI50 in the assay with TK-10 renal was 1.72 µM; in the assay with BT-549 breast, 0.785 µM; with M14 melanoma it was 1.57 µM; in the assay with CAKI-1 renal, 1.45 µM; in the assay on CCRF-CEM leukemia, 0.44 µM; in the assay on SF-268 CNS it was 1.27 µM. For the same compound, the GI50 in the assay on OVCAR-4 ovarian is 1.5 µM; in the assay on EKVX NSCLC, 1.56 µM. The TGI with TK-10 renal was 8.21 µM; in the assay on BT-549 breast, 1.83 µM; in the assay on M14 melanoma, 11.9 µM; in the assay on CAKI-1 renal it was over 15.4 µM; with CCRF-CEM leukemia it was over 50 µM; in the assay on SF-268 CNS it was 4.17 µM. Also, the TGI in the assay on OVCAR-4 ovarian is over 50 µM; with EKVX NSCLC it was 6.4 µM.

With `O=c1c2c3c(sc2nc(N/N=C/c2ccc(Br)cc2)n1Cc1ccccc1)CCCC3`, the GI50 with TK-10 renal is 39.9 µM; with BT-549 breast it was 8.02 µM; in the assay on M14 melanoma it was 9.15 µM; in the assay on CAKI-1 renal it was 74.3 µM; in the assay on CCRF-CEM leukemia it was 7.23 µM; with SF-268 CNS it was 14.1 µM. Moreover, the GI50 with OVCAR-4 ovarian was 9.67 µM; in the assay on EKVX NSCLC it was 7.76 µM. The TGI with TK-10 renal, in the assay on BT-549 breast, with M14 melanoma, with CAKI-1 renal, in the assay with CCRF-CEM leukemia and in the assay on SF-268 CNS was over 100 µM throughout. The TGI with OVCAR-4 ovarian and in the assay with EKVX NSCLC was over 100 µM in each case.

For the compound `Cc1ncsc1-c1ccc(CNC(=O)[C@@H]2C[C@@H](O)CN2C(=O)[C@@H](NC(=O)C2(C#N)CC2)C(C)(C)C)cc1`, the GI50 with TK-10 renal is over 100 µM; with BT-549 breast it was over 100 µM; with CAKI-1 renal, 82 µM; in the assay on CCRF-CEM leukemia, over 100 µM; in the assay on SF-268 CNS, over 100 µM; in the assay with OVCAR-4 ovarian it was 80.7 µM. Besides, the GI50 in the assay with EKVX NSCLC is 35.2 µM. In addition, the TGI in the assay on TK-10 renal, in the assay with BT-549 breast, with CAKI-1 renal, in the assay on CCRF-CEM leukemia, in the assay with SF-268 CNS and in the assay with OVCAR-4 ovarian was over 100 µM in each case. In the assay with EKVX NSCLC, the TGI is over 100 µM.

With `COc1cnc2c(c1)C(=O)c1c-2n(CCCNC(C)C)c(=O)c2cc(F)ccc12`, the GI50 with TK-10 renal was 0.178 µM; in the assay on BT-549 breast it was 0.655 µM; in the assay on M14 melanoma, 0.23 µM; with CCRF-CEM leukemia it was 0.111 µM; in the assay on SF-268 CNS, 0.207 µM; in the assay on OVCAR-4 ovarian, 0.301 µM. Besides, the GI50 in the assay on EKVX NSCLC is 0.299 µM. Further, the TGI stood at 0.623 µM with TK-10 renal; 4.09 µM with BT-549 breast; 1.3 µM in the assay on M14 melanoma; 10.7 µM in the assay on CCRF-CEM leukemia; 1.68 µM in the assay with SF-268 CNS; 1.7 µM in the assay on OVCAR-4 ovarian. For the same compound, the TGI in the assay on EKVX NSCLC was 1.73 µM.

In the case of `OCC1OC(n2cnc3c(Cl)nc(Cl)cc32)C(O)C1O` (stereo not given), the GI50 in the assay with TK-10 renal, in the assay with BT-549 breast, in the assay on M14 melanoma, in the assay on CAKI-1 renal, in the assay on CCRF-CEM leukemia and with SF-268 CNS was over 100 µM each time. Besides, the GI50 in the assay with EKVX NSCLC was over 100 µM. The TGI with TK-10 renal, in the assay with BT-549 breast, in the assay with M14 melanoma, with CAKI-1 renal, in the assay on CCRF-CEM leukemia and with SF-268 CNS was over 100 µM in each case. The TGI in the assay on EKVX NSCLC was over 100 µM.

For the compound `C=C1C(=O)O[C@@H]2C1C[C@@H](O)C(=C)CC/C=C(\C)CCC[C@H](C)[C@H]2OC(C)=O` (stereo not given in full), the GI50 is 2.11 µM in the assay on TK-10 renal; 2.73 µM in the assay with BT-549 breast; 4.06 µM with CAKI-1 renal; 2.34 µM with CCRF-CEM leukemia; 11 µM in the assay with SF-268 CNS; 4.65 µM in the assay on OVCAR-4 ovarian. The GI50 with EKVX NSCLC is 12 µM. Also, the TGI in the assay with TK-10 renal is 5.57 µM; with BT-549 breast, 7.46 µM; in the assay on CAKI-1 renal, 14.7 µM; with CCRF-CEM leukemia it was 5.05 µM; in the assay on SF-268 CNS, 30.5 µM; in the assay on OVCAR-4 ovarian, 28 µM. The same compound gave a TGI with EKVX NSCLC of 25.6 µM.

For the compound `CN(C)CCOC(c1ccccc1)c1ccccc1`, the GI50 with TK-10 renal was 45.9 µM; in the assay with BT-549 breast, 33.7 µM; in the assay on M14 melanoma it was 15.3 µM; with CAKI-1 renal, 38.2 µM. Further, the TGI is 59.7 µM and > 100 µM in the assay on TK-10 renal; 48.4 µM with BT-549 breast; 23.9 µM and > 100 µM with M14 melanoma; 52.6 µM and > 100 µM with CAKI-1 renal; over 100 µM in the assay with CCRF-CEM leukemia; over 100 µM with OVCAR-4 ovarian. The compound further came in with a TGI in the assay on EKVX NSCLC of over 100 µM.
